# Data as given in article PMC10414762, “Gene amplifications cause high-level resistance against albicidin in gram-negative bacteria” (PLOS Biology, 2023).
# Molecular target: T1, STM3175 (YgiV) (Salmonella enterica, UniProt Q8ZM00)
# T1 construct: full-length STM3175 (288 aa)
# Experiment: tryptophan fluorescence quenching titration
# Type: binding
# Excerpt: tryptophan fluorescence quenching titration on STM3175 (YgiV) | Fluorescence quenching of STM3175 plotted as a function of increasing azahistidine albicidin concentration.
# T1 sequence (Q8ZM00 whole entry): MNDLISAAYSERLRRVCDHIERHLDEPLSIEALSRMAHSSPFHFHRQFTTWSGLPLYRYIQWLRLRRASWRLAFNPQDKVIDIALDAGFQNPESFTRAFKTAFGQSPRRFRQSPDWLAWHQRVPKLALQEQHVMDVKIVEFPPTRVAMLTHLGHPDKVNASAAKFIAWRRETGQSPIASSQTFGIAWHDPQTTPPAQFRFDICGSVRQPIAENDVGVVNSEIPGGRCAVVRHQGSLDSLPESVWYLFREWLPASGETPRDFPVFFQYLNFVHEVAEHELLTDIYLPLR
structure (smiles),measurement,value
COc1c(NC(=O)c2ccc(NC(=O)c3ccc(NC(=O)[C@H](Cc4c[nH]nn4)NC(=O)c4ccc(NC(=O)/C(C)=C/c5ccc(O)cc5)cc4)cc3)c(OC)c2O)ccc(C(=O)O)c1O [azahistidine albicidin],Kd,170 ± 10 nM
